Measured values from patent US12077503B2, “Substituted cyclic amides and their use as herbicides” (FMC CORPORATION, priority 2015, dated 2024).

Question: For `C=C(C)c1cccc([C@H]2CN(C)C(=O)[C@@H]2C(=O)Nc2ccc(F)c(F)c2F)c1` [Compound 1087], which melting point is on record?
Answer: Its melting point is 98 to 102 °C.

Question: For `CC(C)=CC1CNC(=O)C1C(=O)Nc1ccccc1F` (stereo not shown) [Compound 1011], which melting point is on record?
Answer: The melting point was 136 to 140 °C.

Question: For `C=C(C)c1ccc([C@H]2CN(C)C(=O)[C@@H]2C(=O)Nc2ccc(F)c(F)c2F)cc1` [Compound 1148], which melting point is on record?
Answer: The melting point was 132 to 136 °C.

Question: Which melting point does the source give for `CC(O)c1ccccc1NC(=O)C1C(=O)N(C)CC1c1cccc(C(F)(F)F)c1` (stereo not shown) [Compound 1147] here?
Answer: The melting point was 107.5 to 115.4 °C.
